47 molecules from the PolyMetriX glass transition set can be followed below.

Turning to `*C(=O)c1ccc2c(c1)C(=O)N(c1cccc(Cc3ccccc3N3C(=O)c4ccc(*)cc4C3=O)c1)C2=O` (repeat unit), the glass transition temperature came out at 258.00 °C.
The value for `*CCCCCCCCCCCCOc1ccc(N(c2ccccc2)c2ccc(-c3ccc(N(c4ccccc4)c4ccc(O*)cc4)cc3)cc2)cc1` (repeat unit) was 42.50 °C.
The value for `*CCOC(=O)Nc1ccc(Cc2ccc(NC(=O)OCCOc3ccc(C(C)(C)c4ccc(O*)cc4)cc3)cc2)cc1` (repeat unit) was 127.00 °C.
For `*COc1ccc(C(C)(C)c2ccc(Oc3ccc(*)n3-c3ccc([N+](=O)[O-])cc3)cc2)cc1` (repeat unit) the value was 76.8 °C; for `*COc1ccc(C(c2ccc(O*)cc2)(C(F)(F)F)C(F)(F)F)cc1` (repeat unit), 123.00 °C.
The molecule `*COc1ccc(C(c2ccc(OCC3(*)COC3)cc2)(C(F)(F)F)C(F)(F)F)cc1` (repeat unit) displayed a glass transition temperature of 134.00 °C.
For `*OP(=O)(Oc1ccc(C(C)(C)c2ccc(*)cc2)cc1)OC1CCCCC1` (repeat unit) the value was 86.00 °C; for `*OP(=O)(Oc1ccc(Cl)cc1)Oc1ccc(C(C)(C)c2ccc(*)cc2)cc1` (repeat unit), 71.00 °C; for `*OS(=O)(=O)c1cccc(C(=O)c2cccc(S(=O)(=O)Oc3ccc(C(C)(C)c4ccc(*)cc4)cc3)c2)c1` (repeat unit), 122.00 °C.
The value for `*O[Si](C)(C)Oc1ccc(C(C)(C)c2ccc(*)cc2)cc1` (repeat unit) was 45.00 °C.
The value for `*O[Si](C)(Oc1ccc(C(C)(C)c2ccc(*)cc2)cc1)c1ccccc1` (repeat unit) was 58.00 °C; that for `*Oc1cc(Oc2ccc(C(C)(C)c3ccc(*)cc3)cc2)cc([N+](=O)[O-])c1` (repeat unit) was 150.00 °C.
`*Oc1ccc(C(C)(C)c2ccc(Oc3c(F)c(F)c(COC(c4cccc(C(OCc5c(F)c(F)c(*)c(F)c5F)(C(F)(F)F)C(F)(F)F)c4)(C(F)(F)F)C(F)(F)F)c(F)c3F)cc2)cc1` (repeat unit) came in with a glass transition temperature of 98.00 °C.
As for `*Oc1ccc(P(=O)(c2ccccc2)c2ccc(Oc3ccc(-c4ccc(*)cc4)cc3)cc2)cc1` (repeat unit), the glass transition temperature was 234.00 °C.
The value for `*Oc1ccc(S(=O)(=O)c2ccc(-c3ccc(-c4ccc(S(=O)(=O)c5ccc(Oc6ccc(-c7ccc(*)cc7)cc6)cc5)cc4)cc3)cc2)cc1` (repeat unit) was 264.00 °C.
The value for `*Oc1ccc(S(=O)(=O)c2ccc(-c3ccc(S(=O)(=O)c4ccc(Oc5ccc(-c6ccc(-c7ccc(*)cc7)cc6)cc5)cc4)cc3)cc2)cc1` (repeat unit) was 263.00 °C; that for `*Oc1ccc(S(=O)(=O)c2ccc(Oc3ccc(-c4ccc(-c5ccc(*)cc5)cc4)cc3)cc2)cc1` (repeat unit) was 251.00 °C; that for `*Oc1ccc(S(=O)(=O)c2ccc3cc(S(=O)(=O)c4ccc(Oc5ccc(-c6ccc(*)cc6)cc5)cc4)ccc3c2)cc1` (repeat unit) was 255.00 °C.
For `*c1cc(C(c2ccc(OCCN(C)c3ccc(/C=C/C4=CC(=C(/C#N)C(=O)OC)/CC(C)(C)C4)cc3)c(N3C(=O)c4ccc(Oc5ccc6c(c5)C(=O)N(*)C6=O)cc4C3=O)c2)(C(F)(F)F)C(F)(F)F)ccc1OCCN(c1ccccc1)c1ccc(/C=C/C2=CC(=C(/C#N)C(=O)OC)/CC(C)(C)C2)cc1` (repeat unit) the value was 207.00 °C; for `*c1cc(C(c2ccc(OCCN(C)c3ccc(/C=C/C4=CC(=C(/C#N)C(=O)OCc5ccc(Oc6c(F)c(F)c(F)c(F)c6F)cc5)/CC(C)(C)C4)cc3)c(N3C(=O)c4ccc(Oc5ccc6c(c5)C(=O)N(*)C6=O)cc4C3=O)c2)(C(F)(F)F)C(F)(F)F)ccc1OCCN(c1ccccc1)c1ccc(/C=C/C2=CC(=C(/C#N)C(=O)OCc3ccc(Oc4c(F)c(F)c(F)c(F)c4F)cc3)/CC(C)(C)C2)cc1` (repeat unit), 162.00 °C.
As for `*c1cc(C(c2ccc(OCCN(C)c3ccc(/C=C/C4=CC(=C(C#N)C#N)CC(C)(C)C4)cc3)c(N3C(=O)c4ccc(Oc5ccc6c(c5)C(=O)N(*)C6=O)cc4C3=O)c2)(C(F)(F)F)C(F)(F)F)ccc1OCCN(C)c1ccc(/C=C/C2=CC(=C(C#N)C#N)CC(C)(C)C2)cc1` (repeat unit), the glass transition temperature came to 215.00 °C.
Take `*c1cc(C(c2ccc(OCCN(c3ccccc3)c3ccc(/C=C/C4=CC(=C(C#N)C#N)CC(C)(C)C4)cc3)c(N3C(=O)c4ccc(Oc5ccc6c(c5)C(=O)N(*)C6=O)cc4C3=O)c2)(C(F)(F)F)C(F)(F)F)ccc1OCCN(c1ccccc1)c1ccc(/C=C/C2=CC(=C(C#N)C#N)CC(C)(C)C2)cc1` (repeat unit): the glass transition temperature stood at 220.00 °C.
The value for `*c1ccc(-c2ccc(-n3c(-c4ccc(Oc5ccc(S(=O)(=O)c6ccc(Oc7ccc(-c8nc9ccccc9n8*)cc7)cc6)cc5)cc4)nc4ccccc43)cc2)cc1` (repeat unit) was 289.00 °C; that for `*c1ccc(-c2ccc(Oc3ccc(C4(C)CC(C)(C)c5ccc(Oc6ccc(-c7ccc(N8C(=O)c9ccc(Oc%10ccc%11c(c%10)C(=O)N(*)C%11=O)cc9C8=O)cc7)cc6C(F)(F)F)cc54)cc3)c(C(F)(F)F)c2)cc1` (repeat unit) was 249.00 °C; that for `*c1ccc(OCCCCCCCCCCCCCCCC)c(N2C(=O)CC(C3C=C(C)C4C(=O)N(*)C(=O)C4C3)C2=O)c1` (repeat unit) was 186.00 °C.
For `*c1ccc(OCCN(CC)c2ccc(-c3ccc(C(=C(C#N)C#N)c4ccc(-c5ccc(N(CC)CC)cc5)s4)s3)cc2)c(-c2cc(-c3ccccc3)c3cc(Oc4ccc5nc(*)cc(-c6ccccc6)c5c4)ccc3n2)c1` (repeat unit) the value was 205.00 °C.
The value for `*c1ccc(OCCN(CC)c2ccc(C(C#N)=C(C#N)C#N)cc2)c(-c2cc(-c3ccccc3)c3cc(Oc4ccc5nc(*)cc(-c6ccccc6)c5c4)ccc3n2)c1` (repeat unit) was 200.00 °C.
Take `*c1ccc(Oc2ccc(-c3cc(-c4ccccc4)c4cc(Oc5ccc6nc(*)c(-c7ccccc7)c(-c7ccccc7)c6c5)ccc4n3)cc2)cc1` (repeat unit): the glass transition temperature was found to be 305.00 °C.
For `*c1ccc(Oc2ccc(-c3cc(-c4ccccc4)c4cc(Oc5ccc6nc(*)cc(-c7ccccc7)c6c5)ccc4n3)cc2)cc1` (repeat unit) the value was 266.00 °C; for `*c1ccc(Oc2ccc(-c3cc(OCCCCCC)c(-c4ccc(Oc5ccc(-c6nnc(*)o6)cc5)cc4)cc3OCCCCCC)cc2)cc1` (repeat unit), 103.00 °C; for `*c1ccc(Oc2ccc(-c3ccc(-c4ccc(Oc5ccc(-c6c7c(c(*)c8ccccc68)C(=O)N(c6ccccc6)C7=O)cc5)c(C(F)(F)F)c4)s3)cc2C(F)(F)F)cc1` (repeat unit), 287.00 °C.
For the molecule `*c1ccc(Oc2ccc(-c3ccc(Oc4ccc(-c5nc(*)nc(-c6ccccc6)n5)cc4)cc3)cc2)cc1` (repeat unit), the glass transition temperature stood at 241.00 °C.
The value for `*c1ccc(Oc2ccc(-c3ccc(Oc4ccc(-c5nc(-c6ccccn6)nnc5*)cc4)cc3)cc2)cc1` (repeat unit) was 230.00 °C; that for `*c1ccc(Oc2ccc(-c3ccc(Oc4ccc(-c5nnc(*)c6c(-c7ccccc7)c(-c7ccc8ccccc8c7)c(-c7ccc8ccccc8c7)c(-c7ccccc7)c56)cc4)cc3)cc2)cc1` (repeat unit) was 334.00 °C.
For `*c1ccc(Oc2ccc(-c3cnc4cc(Oc5ccc6nc(*)cnc6c5)ccc4n3)cc2)cc1` (repeat unit) the value was 382.00 °C; for `*c1ccc(Oc2ccc(-c3cnc4ccc(-c5ccc6nc(*)cnc6c5)cc4n3)cc2)cc1` (repeat unit), 280.00 °C.
For `*c1ccc(Oc2ccc(-c3nc4ccc(-c5ccc6nc(*)c(-c7ccccc7)c(-c7ccccc7)c6c5)cc4c(-c4ccccc4)c3-c3ccccc3)cc2)cc1` (repeat unit) the value was 300.00 °C; for `*c1ccc(Oc2ccc(C(=O)c3ccc4cc(C(=O)c5ccc(Oc6ccc(-c7nc(-c8ccc(-c9nc(*)c(-c%10ccccc%10)[nH]9)cc8)[nH]c7-c7ccccc7)cc6)cc5)ccc4c3)cc2)cc1` (repeat unit), 281.00 °C; for `*c1ccc(Oc2ccc(C(C)(C)c3ccc(Oc4ccc(-c5nc(*)nc(-c6ccccc6)n5)cc4)cc3)cc2)cc1` (repeat unit), 228.00 °C.
The molecule `*c1ccc(Oc2ccc(C(C)(C)c3ccc(Oc4ccc(-c5nnc(*)n5-c5ccc(S(=O)(=O)c6ccccc6)cc5)cc4)cc3)cc2)cc1` (repeat unit) gave a glass transition temperature of 198.00 °C.
The value for `*c1ccc(Oc2ccc(C(C)(C)c3ccc(Oc4ccc(-c5nnc(*)n5-c5ccc(S(C)(=O)=O)cc5)cc4)cc3)cc2)cc1` (repeat unit) was 230.00 °C; that for `*c1ccc(Oc2ccc(C(C)(C)c3ccc(Oc4ccc(-c5nnc(*)n5-c5cccc(C(F)(F)F)c5)cc4)cc3)cc2)cc1` (repeat unit) was 190.00 °C; that for `*c1ccc(Oc2ccc(C(C)(C)c3ccc(Oc4ccc(-c5nnc(*)n5-c5ccccc5)cc4)cc3)cc2)cc1` (repeat unit) was 207.00 °C.
As to `*c1ccc(Oc2ccc(C(c3ccc(Oc4ccc(-c5nnc(*)c6c(-c7ccccc7)c(-c7ccc8ccccc8c7)c(-c7ccc8ccccc8c7)c(-c7ccccc7)c56)cc4)cc3)(C(F)(F)F)C(F)(F)F)cc2)cc1` (repeat unit), the glass transition temperature is 291.00 °C.
For `*c1ccc(Oc2ccc(S(=O)(=O)c3ccc(Oc4ccc(-c5cc(*)[nH]n5)cc4)cc3)cc2)cc1` (repeat unit) the value was 260.00 °C; for `*c1ccc(Oc2ccc(S(=O)(=O)c3ccc(Oc4ccc(-c5nc(-c6cccc(-c7nc(*)c(-c8ccccc8)[nH]7)c6)[nH]c5-c5ccccc5)cc4)cc3)cc2)cc1` (repeat unit), 292.00 °C.
`*c1ccc2oc(-c3ccc(Oc4ccc(C(c5ccc(Oc6ccc(-c7nc8cc(C(*)(C(F)(F)F)C(F)(F)F)ccc8o7)cc6)cc5)(C(F)(F)F)C(F)(F)F)cc4)cc3)nc2c1` (repeat unit): the glass transition temperature was determined as 255.00 °C.
